Test [1] is described as follows: viability of uninfected HEp-2 cells – cell-based, HTS, cytotoxicity control for RSV inhibitor project, dose response (AID 2410). The format is functional. Particulars: human respiratory syncytial virus.
In another test the target is Nonstructural protein 1 (Influenza A virus, UniProt Q194T2). The format is functional, Influenza A virus (A/California/07/2009(H1N1)).
The target in test [2] is Luciferin 4-monooxygenase (Photinus pyralis, UniProt P08659). Nature of the test: inhibition of purified Photinus pyralis luciferase – biochemical, luminescence, dose response (AID 1891).
Test [3] in a line: Luminescence Cell-Based Dose Confirmation HTS to Identify Inhibitors of Platelet Dense Granule Release. [Related pubchem assays: 1663 (Primary HTS), 1678 (Summary of Project)]. The format is functional.
The target in test [4] is T1, Ubiquitin-conjugating enzyme E2 N (Homo sapiens, UniProt P61088).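 Also: Dose-response confirmation in a TR-FRET assay detecting UBC13-driven polyubiquitin chain formation, inhibition measured.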
T1 sequence (P61088 whole entry): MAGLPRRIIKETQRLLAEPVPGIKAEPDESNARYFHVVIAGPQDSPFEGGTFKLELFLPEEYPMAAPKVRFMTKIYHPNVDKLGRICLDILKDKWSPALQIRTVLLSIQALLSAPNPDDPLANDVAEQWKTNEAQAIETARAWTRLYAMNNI
The format is functional.

Another test deals with Large T antigen (Simian virus 40, UniProt P03070). The format is functional, Betapolyomavirus macacae.
For another test, the target named is Genome polyprotein (dengue virus type 2, UniProt P29990). Nature of the test: flavivirus cap methylation enzyme inhibition – biochemical, confirmation dose response, primary screen (AID 588689). The format is functional.
For test [5], the target named is T2, Corticotropin-releasing factor receptor 2/Corticotropin-releasing factor-binding protein (Homo sapiens, UniProt P24387+Q13324).
T2 sequence (Q13324 whole entry): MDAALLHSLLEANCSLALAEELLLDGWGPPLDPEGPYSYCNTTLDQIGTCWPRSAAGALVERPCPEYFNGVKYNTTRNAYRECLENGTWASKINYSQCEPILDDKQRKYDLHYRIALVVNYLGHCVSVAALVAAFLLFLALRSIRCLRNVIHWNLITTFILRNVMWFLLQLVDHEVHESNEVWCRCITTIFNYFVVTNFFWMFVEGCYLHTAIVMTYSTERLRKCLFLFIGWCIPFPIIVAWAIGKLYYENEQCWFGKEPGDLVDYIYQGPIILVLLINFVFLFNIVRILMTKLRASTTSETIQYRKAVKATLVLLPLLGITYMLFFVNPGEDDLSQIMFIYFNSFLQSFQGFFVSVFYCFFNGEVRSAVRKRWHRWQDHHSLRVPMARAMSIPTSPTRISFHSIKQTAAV
T2 sequence (P24387 whole entry): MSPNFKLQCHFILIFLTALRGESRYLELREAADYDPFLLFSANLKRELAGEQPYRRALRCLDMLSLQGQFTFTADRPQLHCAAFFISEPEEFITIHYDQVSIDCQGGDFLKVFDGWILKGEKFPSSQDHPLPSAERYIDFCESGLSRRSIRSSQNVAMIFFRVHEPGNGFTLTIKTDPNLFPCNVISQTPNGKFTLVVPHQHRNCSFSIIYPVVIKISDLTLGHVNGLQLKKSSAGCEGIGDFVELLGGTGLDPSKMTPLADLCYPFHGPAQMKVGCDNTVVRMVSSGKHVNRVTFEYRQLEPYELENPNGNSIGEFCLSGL
Nature of the test: Dose Response confirmation of uHTS hits for small molecule antagonists of the CRF-binding protein and CRF-R2 receptor complex. The format is functional. The settings on record: read-out: IC50_Mean.

Test [6] deals with T2, Corticotropin-releasing factor receptor 2/Corticotropin-releasing factor-binding protein. Nature of the test: activators of CRF receptor 2 with binding protein – uHTS hits, confirmation (AID 602473). The format is functional. The settings on record: read-out: EC50_Mean.
The target of test [7] is T3, Histone-lysine N-methyltransferase NSD2 (Homo sapiens, UniProt O96028).
T3 sequence (O96028 whole entry): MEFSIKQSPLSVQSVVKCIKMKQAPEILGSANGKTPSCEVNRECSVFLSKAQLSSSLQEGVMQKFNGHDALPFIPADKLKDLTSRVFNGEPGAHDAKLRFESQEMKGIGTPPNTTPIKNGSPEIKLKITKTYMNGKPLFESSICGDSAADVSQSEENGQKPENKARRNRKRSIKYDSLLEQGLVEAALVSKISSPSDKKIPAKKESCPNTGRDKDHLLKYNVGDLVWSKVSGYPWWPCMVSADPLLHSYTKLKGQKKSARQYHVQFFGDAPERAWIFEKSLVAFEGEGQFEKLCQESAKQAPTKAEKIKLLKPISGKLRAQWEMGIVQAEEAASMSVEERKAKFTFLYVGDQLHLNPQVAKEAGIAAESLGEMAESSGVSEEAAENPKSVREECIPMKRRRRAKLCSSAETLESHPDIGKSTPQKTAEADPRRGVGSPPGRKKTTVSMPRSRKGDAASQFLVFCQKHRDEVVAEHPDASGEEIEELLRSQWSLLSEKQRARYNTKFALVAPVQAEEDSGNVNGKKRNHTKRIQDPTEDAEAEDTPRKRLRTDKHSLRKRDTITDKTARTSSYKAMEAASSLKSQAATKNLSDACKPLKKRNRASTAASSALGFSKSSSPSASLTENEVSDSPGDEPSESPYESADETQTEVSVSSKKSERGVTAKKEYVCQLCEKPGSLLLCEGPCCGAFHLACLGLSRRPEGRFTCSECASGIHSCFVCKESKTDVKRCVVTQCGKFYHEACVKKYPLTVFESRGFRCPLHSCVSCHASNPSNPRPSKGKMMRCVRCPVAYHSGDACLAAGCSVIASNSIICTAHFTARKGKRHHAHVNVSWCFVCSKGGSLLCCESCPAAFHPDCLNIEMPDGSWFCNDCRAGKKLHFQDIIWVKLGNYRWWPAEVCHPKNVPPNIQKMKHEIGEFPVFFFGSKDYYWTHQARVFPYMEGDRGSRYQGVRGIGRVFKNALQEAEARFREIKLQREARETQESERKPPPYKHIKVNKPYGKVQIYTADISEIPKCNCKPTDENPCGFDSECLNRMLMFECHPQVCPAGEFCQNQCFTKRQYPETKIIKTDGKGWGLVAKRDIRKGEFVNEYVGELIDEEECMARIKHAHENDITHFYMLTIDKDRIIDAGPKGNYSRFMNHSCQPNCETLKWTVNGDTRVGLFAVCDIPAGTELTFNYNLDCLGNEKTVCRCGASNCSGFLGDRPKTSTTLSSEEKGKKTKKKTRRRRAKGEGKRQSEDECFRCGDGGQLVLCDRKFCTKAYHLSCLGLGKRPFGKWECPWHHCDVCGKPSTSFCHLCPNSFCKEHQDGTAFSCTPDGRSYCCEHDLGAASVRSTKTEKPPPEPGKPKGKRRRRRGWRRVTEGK
The format is biochemical.

Test [8] has as its target FAD-linked sulfhydryl oxidase ALR (Homo sapiens, UniProt P55789). As to the kind of experiment: ALR-catalysed DTT oxidation blockers – biochemical, H2O2 detection, luminescence, cherry-pick, dose response (AID 493248).
Test [9] concerns the target T4, Rac GTPase-activating protein 1 (Homo sapiens, UniProt Q9H0H5).
T4 sequence (Q9H0H5 whole entry): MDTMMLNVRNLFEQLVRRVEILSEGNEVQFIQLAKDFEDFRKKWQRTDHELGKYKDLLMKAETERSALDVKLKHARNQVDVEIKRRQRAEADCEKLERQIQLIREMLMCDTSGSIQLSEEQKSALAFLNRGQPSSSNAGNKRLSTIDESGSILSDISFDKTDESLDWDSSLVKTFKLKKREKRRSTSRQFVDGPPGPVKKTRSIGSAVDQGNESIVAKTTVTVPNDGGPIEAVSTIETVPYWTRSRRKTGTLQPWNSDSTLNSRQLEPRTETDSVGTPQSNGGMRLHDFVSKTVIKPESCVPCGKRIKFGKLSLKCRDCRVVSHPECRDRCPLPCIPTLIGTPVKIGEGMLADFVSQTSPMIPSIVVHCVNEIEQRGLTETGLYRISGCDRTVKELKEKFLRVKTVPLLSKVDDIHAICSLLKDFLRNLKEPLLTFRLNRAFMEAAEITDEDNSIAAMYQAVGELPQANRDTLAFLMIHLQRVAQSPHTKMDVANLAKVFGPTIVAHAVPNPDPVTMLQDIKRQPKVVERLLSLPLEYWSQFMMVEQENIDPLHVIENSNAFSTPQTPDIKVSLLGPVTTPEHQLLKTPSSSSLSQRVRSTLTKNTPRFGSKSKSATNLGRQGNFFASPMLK
As to the kind of experiment: blockers of MgcRacGAP-driven Rac1 GTP hydrolysis – biochemical, ADP Hunter fluorescence, primary and confirmatory, confirmation (AID 624330). The format is functional.

In another test the test system is H9c2. As to the kind of experiment: cells. The format is functional, cell-based. Particulars: Rattus norvegicus, H9c2, Myocardium.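 Also: confirmatory concentration-response retest of ultra-high-throughput screening hits for modulation of myocardial damage; cell death induced by hydrogen peroxide oxidative stress; compound pretreatment for 60 min then peroxide exposure for 2 h; potency is for protecting the cells against peroxide damage rather than for killing them.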

The source made the active and inactive calls. A value given as a limit tells only on which side of the number the result lay.

Usually CC50 stands for the concentration at which the toxic effect on the cells reaches its halfway point. As usually defined, the AC50 is the concentration at which the activity in the assay is half-maximal.

Chain of Nonstructural protein 1 (Q194T2 whole entry): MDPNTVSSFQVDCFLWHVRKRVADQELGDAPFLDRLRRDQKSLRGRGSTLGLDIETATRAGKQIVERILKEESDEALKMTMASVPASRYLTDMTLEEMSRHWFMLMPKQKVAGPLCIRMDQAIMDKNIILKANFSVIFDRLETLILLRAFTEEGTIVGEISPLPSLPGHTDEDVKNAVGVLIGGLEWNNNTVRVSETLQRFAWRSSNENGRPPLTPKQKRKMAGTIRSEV
Chain of Luciferin 4-monooxygenase (P08659 whole entry): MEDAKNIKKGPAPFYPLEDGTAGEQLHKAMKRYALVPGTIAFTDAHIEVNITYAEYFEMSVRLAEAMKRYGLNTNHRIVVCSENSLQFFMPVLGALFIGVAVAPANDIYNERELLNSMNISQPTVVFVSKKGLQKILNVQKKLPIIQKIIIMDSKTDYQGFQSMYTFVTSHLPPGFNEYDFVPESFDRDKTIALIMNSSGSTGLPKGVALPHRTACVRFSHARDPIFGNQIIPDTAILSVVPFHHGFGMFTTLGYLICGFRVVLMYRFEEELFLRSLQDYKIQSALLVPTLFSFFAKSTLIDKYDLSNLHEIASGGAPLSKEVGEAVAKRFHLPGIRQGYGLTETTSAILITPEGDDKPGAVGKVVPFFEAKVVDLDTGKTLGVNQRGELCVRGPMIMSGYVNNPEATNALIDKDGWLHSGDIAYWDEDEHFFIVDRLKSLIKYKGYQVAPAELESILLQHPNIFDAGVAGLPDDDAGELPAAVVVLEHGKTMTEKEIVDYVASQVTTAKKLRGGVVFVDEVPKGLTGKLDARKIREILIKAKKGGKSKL
Chain of Large T antigen (P03070 whole entry): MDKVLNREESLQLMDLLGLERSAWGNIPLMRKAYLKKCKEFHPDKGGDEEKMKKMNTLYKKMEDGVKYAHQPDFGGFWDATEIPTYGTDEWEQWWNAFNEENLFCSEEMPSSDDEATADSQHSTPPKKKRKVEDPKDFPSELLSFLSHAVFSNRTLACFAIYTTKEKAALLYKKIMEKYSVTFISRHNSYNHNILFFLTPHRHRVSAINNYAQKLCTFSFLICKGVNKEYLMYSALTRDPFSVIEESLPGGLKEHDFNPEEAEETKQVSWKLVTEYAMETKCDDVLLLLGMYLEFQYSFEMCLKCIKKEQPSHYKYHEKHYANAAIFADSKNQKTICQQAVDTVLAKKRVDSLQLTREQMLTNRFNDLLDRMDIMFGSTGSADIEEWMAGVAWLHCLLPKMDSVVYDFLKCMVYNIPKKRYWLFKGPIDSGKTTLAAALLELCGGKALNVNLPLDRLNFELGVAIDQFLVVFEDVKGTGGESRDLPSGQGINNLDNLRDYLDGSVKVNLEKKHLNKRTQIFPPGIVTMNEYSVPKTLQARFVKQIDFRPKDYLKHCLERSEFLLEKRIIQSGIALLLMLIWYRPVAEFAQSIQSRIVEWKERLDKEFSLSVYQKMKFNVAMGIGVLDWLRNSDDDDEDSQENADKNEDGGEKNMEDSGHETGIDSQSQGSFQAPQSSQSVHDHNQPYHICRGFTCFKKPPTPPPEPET
Chain of Genome polyprotein (P29990 2492-3391 limits assumed): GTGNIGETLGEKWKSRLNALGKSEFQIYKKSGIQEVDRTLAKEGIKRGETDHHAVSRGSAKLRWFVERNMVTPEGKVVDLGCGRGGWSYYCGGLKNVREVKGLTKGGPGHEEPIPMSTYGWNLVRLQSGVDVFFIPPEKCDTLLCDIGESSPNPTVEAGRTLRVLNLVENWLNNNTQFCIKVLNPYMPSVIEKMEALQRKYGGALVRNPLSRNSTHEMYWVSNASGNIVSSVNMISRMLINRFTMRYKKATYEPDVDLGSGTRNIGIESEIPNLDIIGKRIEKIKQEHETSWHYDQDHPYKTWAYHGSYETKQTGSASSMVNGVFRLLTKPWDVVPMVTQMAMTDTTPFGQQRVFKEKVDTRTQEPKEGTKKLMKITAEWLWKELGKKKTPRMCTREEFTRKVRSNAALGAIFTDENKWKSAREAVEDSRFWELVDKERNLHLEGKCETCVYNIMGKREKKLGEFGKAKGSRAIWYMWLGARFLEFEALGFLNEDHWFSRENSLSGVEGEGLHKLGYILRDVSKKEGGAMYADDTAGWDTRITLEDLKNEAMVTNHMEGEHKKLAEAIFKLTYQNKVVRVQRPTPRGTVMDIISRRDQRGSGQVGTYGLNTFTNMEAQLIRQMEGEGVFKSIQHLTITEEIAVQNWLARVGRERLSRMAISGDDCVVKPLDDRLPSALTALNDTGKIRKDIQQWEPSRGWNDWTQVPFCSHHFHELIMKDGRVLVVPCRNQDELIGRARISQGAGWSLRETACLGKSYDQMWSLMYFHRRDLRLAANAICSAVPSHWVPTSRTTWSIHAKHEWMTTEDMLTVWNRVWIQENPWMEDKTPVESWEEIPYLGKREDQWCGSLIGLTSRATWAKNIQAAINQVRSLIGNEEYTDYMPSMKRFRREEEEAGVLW
Chain of FAD-linked sulfhydryl oxidase ALR (P55789 whole entry): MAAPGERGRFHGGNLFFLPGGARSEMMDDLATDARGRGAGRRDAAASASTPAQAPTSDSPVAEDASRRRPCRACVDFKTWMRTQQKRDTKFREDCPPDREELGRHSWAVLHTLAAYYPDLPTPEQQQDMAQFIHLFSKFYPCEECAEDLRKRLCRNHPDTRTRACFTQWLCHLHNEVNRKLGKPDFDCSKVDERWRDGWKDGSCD

`CCn1ncc(CN2CCCC(C(=O)Nc3cccc(-c4cc5ccccc5[nH]4)c3)C2)c1C` (stereo not drawn): the half-maximal cytotoxic concentration (CC50) in [1] was 16.1 µM (active). Besides, on Nonstructural protein 1, the IC50 was > 100 µM (active).
With `COCc1cc(C)nc(SCC[N+](C)(C)CC(=O)c2ccc(Br)cc2)c1C#N`, the EC50 in test [2] and in [3] was > 112 µM (not active) each time.
In the case of `CC(C)N1C[C@@]23C=C[C@@H](O2)C(C(=O)OCc2ccccc2)[C@H]3C1=O` (stereo partly drawn), the EC50 in [2] and in [3] was > 112 µM (not active) throughout.
Consider `O=C(CCNC(=O)Cn1ccc2ccccc2c1=O)NCCN1CCN(c2ccccc2F)CC1`, for which the IC50 in [4] was > 20 µM (inactive).
Turning to `O=C1ON=C(c2ccccc2)/C1=C/c1ccc(OS(=O)(=O)c2ccccc2)cc1`, the values for the IC50 at Large T antigen and at Genome polyprotein were 67.3 µM (active) and 32.3 µM (active), respectively.
`COC(=O)c1ccccc1NC(=O)COC(=O)c1ccccc1N=Nc1ccc(N(C)C)cc1`: on Nonstructural protein 1, the IC50 was 21.4 µM (active).
`COc1ccc2cc(C(=O)N3CCN(Cc4ccc5c(c4)OCO5)CC3)[nH]c2c1`: the figures for the EC50 in [2], in [6] and in [3] were > 112 µM (not active), > 53 µM (inactive) and > 112 µM (not active), respectively. Also, the IC50 in [5] is > 47.1 µM (inactive).
For the molecule `O=C(Nc1ccccc1C(=O)N/N=C/c1ccncc1)c1ccccc1`, the EC50 in test [2] was < 0.088 µM (active); in test [3] it was 3.06 µM (active).
`COc1ccccc1NS(=O)(=O)c1ccc(NC(C)=O)cc1`: the EC50 in test [2] and in [3] was > 112 µM (not active) each time.
For `Cc1ccc(NC(=O)Cc2nc(CCl)cs2)cc1`, the EC50 in [2] and in test [3] was > 112 µM (not active) each time.
`COc1ccc(/C=N/NC(=O)c2nonc2C)cc1`: the EC50 in [2] is 9.4 µM (active); in test [3], 2.84 µM (active).
As for `CCN(CC)CCC(=O)c1ccc(F)cc1`, in test [7], the AC50 was > 20 µM (inactive).
For the molecule `CCn1cnc2cc(NCc3ccc(N(C)C)cc3)ccc21`, the IC50 at Large T antigen was 15.8 µM (active). Also, the AC50 in test [8] was 5.86 µM (active).
On to `CN(C)c1ccc(NC(=O)CN2CCC(O)(c3ccccc3)CC2)cc1`, for which the IC50 at Large T antigen was 7.29 µM (active).
Take `CCN(CC)CCN1C(=O)C(O)=C(C(=O)c2ccc(C)cc2)C1c1cccnc1` (stereo not drawn): the IC50 at Large T antigen was 18.9 µM (active).
Regarding `CC(C)(C)C1=CC(=Nc2ccccc2N)C=C(C(C)(C)C)C1=O`, on Nonstructural protein 1, the IC50 is 10.9 µM (active).
Regarding `Cc1ccccc1N1C(=O)NC(=O)/C(=C\c2cnn(-c3ccccc3)c2)C1=O`, the IC50 was 44.9 µM (active) at Large T antigen, 118 µM (active) in test [9] and > 100 µM (active) at Genome polyprotein.
Regarding `CCOC(=O)N1CCC(N2C(=O)c3ccccc3C2Nc2cc(OC)c(OC)c(OC)c2)CC1` (stereo not drawn), the EC50 in test [2] is > 112 µM (not active); in test [3], 94.3 µM (active). For the same molecule, the IC50 in the test on H9c2 is > 79 µM (inactive).
Turning to `CSC1=NSC2=NC(=O)/C(=C/c3coc4ccccc4c3=O)C(=N)N12`, in test [7], the AC50 is 16.5 µM (active).
For the molecule `CCN(CC)CCCN(Cc1cc2cc(OC)ccc2nc1O)C(=O)Nc1ccc(F)cc1`, in test [7], the AC50 was 12.4 µM (active).
As to `CCC[C@@H](CN1CCC[C@H]1CN1C(N)=NC[C@H]1CC(C)C)N1C[C@@H]([C@H](C)CC)N(CCCC2CCCC2)C1=N`, the IC50 in [4] is > 20 µM (inactive).
For `CC1CC(C)(C)CC2(C1)NC(=O)N(CC(=O)Nc1ccc3[nH]c(O)nc3c1)C2=O` (stereo not drawn), in test [4], the IC50 was > 20 µM (inactive).
